We go through 12 compounds from patent US20250051276A1 (priority 2021, published 2025).

As a reminder, the pEC50 is the EC50 on a negative log10 scale, so that one unit is a factor of ten. Broadly, the pIC50 is the IC50 on a negative log10 scale, so that one unit is a factor of ten. A lower pIC50 goes with a high IC50.

pEC50, pIC50: −log10 of the molar value.

For the first experiment, the target named is human recombinant 5-HT2Cedited receptor (Homo sapiens, UniProt P28335, I156V/I160V/N158S). The experiment is described as follows: cell-based.
Sequence of human recombinant 5-HT2Cedited receptor (P28335 33-458 I156V/N158S/I160V limits assumed): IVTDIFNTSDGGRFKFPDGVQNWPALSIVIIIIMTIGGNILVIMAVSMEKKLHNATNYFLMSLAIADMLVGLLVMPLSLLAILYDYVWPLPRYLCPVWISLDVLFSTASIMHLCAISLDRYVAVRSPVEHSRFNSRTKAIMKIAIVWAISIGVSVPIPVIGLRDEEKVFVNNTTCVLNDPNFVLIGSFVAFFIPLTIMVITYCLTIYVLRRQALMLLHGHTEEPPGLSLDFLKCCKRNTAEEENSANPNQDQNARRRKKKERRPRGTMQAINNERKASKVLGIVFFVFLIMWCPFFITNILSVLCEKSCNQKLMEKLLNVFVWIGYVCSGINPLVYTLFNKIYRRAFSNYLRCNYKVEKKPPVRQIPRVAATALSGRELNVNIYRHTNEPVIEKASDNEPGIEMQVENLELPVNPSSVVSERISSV
As to `C[C@H](Cn1ccc2nc(OCc3ccccc3)ccc21)N(C)C` [Compound 1, (R)-1-(5-(benzyloxy)-1H-pyrrolo[3,2-b]pyridin-1-yl)-N,N-dimethylpropan-2-amine], the pEC50 was below 5.00.
Regarding `C[C@@H](N)Cn1ccc2nc(OCc3ccccc3)ccc21` [Compound 2, (R)-1-(5-(benzyloxy)-1H-pyrrolo[3,2-b]pyridin-1-yl)propan-2-amine], the pEC50 is below 5.00.
For the compound `C[C@H](Cn1ccc2cc(OCc3ccccc3)ccc21)N(C)C` [Compound 3, (R)-1-(5-(benzyloxy)-1H-indol-1-yl)-N,N-dimethylpropan-2-amine], the pEC50 was 5.00 to 6.00.
In the case of `CN[C@H](C)Cn1ccc2cc(OCc3ccccc3)ccc21` [Compound 4, (R)-1-(5-(benzyloxy)-1H-indol-1-yl)-N-methylpropan-2-amine], the negative logarithm of the EC50 (pEC50) is 5.00 to 6.00.
The same measure, in the same setting: then `C[C@@H](N)Cn1ccc2cc(OCc3ccc(F)cc3)ccc21` [Compound 5, (R)-1-(5-((4-fluorobenzyl)oxy)-1H-indol-1-yl)propan-2-amine], with 5.00 to 6.00.
Turning to `C[C@@H](N)Cn1ccc2cc(OCc3cccc(F)c3)ccc21` [Compound 6, (R)-1-(5-((3-fluorobenzyl)oxy)-1H-indol-1-yl)propan-2-amine], the negative logarithm of the EC50 (pEC50) is 5.00 to 6.00.
Turning to `C[C@@H](N)Cn1ccc2cc(OCc3ccccc3F)ccc21` [Compound 7, (R)-1-(5-((2-fluorobenzyl)oxy)-1H-indol-1-yl)propan-2-amine], the negative logarithm of the EC50 (pEC50) was 5.00 to 6.00.
Regarding `C[C@H](Cn1ccc2cc(OCc3ccc(F)cc3)ccc21)N(C)C` [Compound 8, (R)-1-(5-((4-fluorobenzyl)oxy)-1H-indol-1-yl)-N,N-dimethylpropan-2-amine], the negative-log EC50 (pEC50) is below 5.00.
For `C[C@H](Cn1ccc2cc(OCc3cccc(F)c3)ccc21)N(C)C` [Compound 9, (R)-1-(5-((3-fluorobenzyl)oxy)-1H-indol-1-yl)-N,N-dimethylpropan-2-amine], the pEC50 was below 5.00.
On the same count and under the same terms, with `C[C@H](Cn1ccc2cc(OCc3ccccc3F)ccc21)N(C)C` [Compound 10, (R)-1-(5-((2-fluorobenzyl)oxy)-1H-indol-1-yl)-N,N-dimethylpropan-2-amine] the figure was below 5.00; with `CCN(CC)[C@H](C)Cn1ccc2cc(OCc3ccccc3)ccc21` [Compound 11, (R)-1-(5-(benzyloxy)-1H-indol-1-yl)-N,N-diethylpropan-2-amine], below 5.00; with `C[C@H](Cn1ccc2cc(OCc3ccccc3)ccc21)N1CCCC1` [Compound 12, (R)-5-(benzyloxy)-1-(2-(pyrrolidin-1-yl)propyl)-1H-indole], below 5.00.

In a further experiment the target is 5-HT2Cedited (accession number AAF35842.1) (Homo sapiens, UniProt P28335, I156V/I160V/N158S). The experiment is described as follows: biochemical. The experiment is classed as binding.
Sequence of 5-HT2Cedited (accession number AAF35842.1) (P28335 whole entry I156V/N158S/I160V, looked up): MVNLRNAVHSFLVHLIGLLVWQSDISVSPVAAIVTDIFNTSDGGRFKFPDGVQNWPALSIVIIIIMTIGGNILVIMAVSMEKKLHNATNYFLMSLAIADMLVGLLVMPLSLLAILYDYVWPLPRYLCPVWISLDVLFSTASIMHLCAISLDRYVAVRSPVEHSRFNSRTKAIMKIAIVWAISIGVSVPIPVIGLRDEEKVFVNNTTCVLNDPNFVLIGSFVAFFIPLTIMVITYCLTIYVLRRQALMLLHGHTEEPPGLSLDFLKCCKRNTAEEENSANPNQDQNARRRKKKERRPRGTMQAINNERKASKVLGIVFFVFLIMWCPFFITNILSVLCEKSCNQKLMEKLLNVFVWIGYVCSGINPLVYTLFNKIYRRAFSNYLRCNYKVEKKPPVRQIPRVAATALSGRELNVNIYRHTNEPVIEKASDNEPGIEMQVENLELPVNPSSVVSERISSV
For `C[C@H](Cn1ccc2nc(OCc3ccccc3)ccc21)N(C)C` [Compound 1, (R)-1-(5-(benzyloxy)-1H-pyrrolo[3,2-b]pyridin-1-yl)-N,N-dimethylpropan-2-amine], the negative-log IC50 (pIC50) was 5.00 to 6.00.
Same read-out and setting: with `C[C@@H](N)Cn1ccc2nc(OCc3ccccc3)ccc21` [Compound 2, (R)-1-(5-(benzyloxy)-1H-pyrrolo[3,2-b]pyridin-1-yl)propan-2-amine] the figure was below 5.00.
With `C[C@H](Cn1ccc2cc(OCc3ccccc3)ccc21)N(C)C` [Compound 3, (R)-1-(5-(benzyloxy)-1H-indol-1-yl)-N,N-dimethylpropan-2-amine], the negative-log IC50 (pIC50) is 6.00 to 7.00.
The compound `CN[C@H](C)Cn1ccc2cc(OCc3ccccc3)ccc21` [Compound 4, (R)-1-(5-(benzyloxy)-1H-indol-1-yl)-N-methylpropan-2-amine] had a negative logarithm of the IC50 (pIC50) of 5.00 to 6.00.
`C[C@@H](N)Cn1ccc2cc(OCc3ccc(F)cc3)ccc21` [Compound 5, (R)-1-(5-((4-fluorobenzyl)oxy)-1H-indol-1-yl)propan-2-amine] showed a pIC50 of 6.00 to 7.00.
The same measure, in the same setting: with `C[C@@H](N)Cn1ccc2cc(OCc3cccc(F)c3)ccc21` [Compound 6, (R)-1-(5-((3-fluorobenzyl)oxy)-1H-indol-1-yl)propan-2-amine] the figure was 6.00 to 7.00.
`C[C@@H](N)Cn1ccc2cc(OCc3ccccc3F)ccc21` [Compound 7, (R)-1-(5-((2-fluorobenzyl)oxy)-1H-indol-1-yl)propan-2-amine] gave a pIC50 of 5.00 to 6.00.
`C[C@H](Cn1ccc2cc(OCc3ccc(F)cc3)ccc21)N(C)C` [Compound 8, (R)-1-(5-((4-fluorobenzyl)oxy)-1H-indol-1-yl)-N,N-dimethylpropan-2-amine] had a pIC50 of 6.00 to 7.00.
In turn, `C[C@H](Cn1ccc2cc(OCc3cccc(F)c3)ccc21)N(C)C` [Compound 9, (R)-1-(5-((3-fluorobenzyl)oxy)-1H-indol-1-yl)-N,N-dimethylpropan-2-amine] showed a pIC50 of 6.00 to 7.00.
`C[C@H](Cn1ccc2cc(OCc3ccccc3F)ccc21)N(C)C` [Compound 10, (R)-1-(5-((2-fluorobenzyl)oxy)-1H-indol-1-yl)-N,N-dimethylpropan-2-amine] gave a pIC50 of 6.00 to 7.00.
Consider `CCN(CC)[C@H](C)Cn1ccc2cc(OCc3ccccc3)ccc21` [Compound 11, (R)-1-(5-(benzyloxy)-1H-indol-1-yl)-N,N-diethylpropan-2-amine], for which the negative logarithm of the IC50 (pIC50) was 5.00 to 6.00.
With `C[C@H](Cn1ccc2cc(OCc3ccccc3)ccc21)N1CCCC1` [Compound 12, (R)-5-(benzyloxy)-1-(2-(pyrrolidin-1-yl)propyl)-1H-indole], the negative-log IC50 (pIC50) is 5.00 to 6.00.
